Measurements reported in patent US20060177888A1, “Method for evaluating antioxidation capability of organism sample” (Chugai Seiyaku Kabushiki Kaisha, priority 2003, published 2006).

Columns and labels:
[1] = system: cholesterol esters contained in plasma samples; assay: Amounts of CEOOHs and CEOHs produced in AAPH-initiated oxidation of plasma samples with added antioxidant; format: biochemical; conditions: antioxidant added to human plasma at various concentrations five minutes before AAPH (10 mM), 37° C., 8 hours; endogenous α-tocopherol present; FIG. 4
Method: Assay reproducibility was tested for oxidation products of cholesterol esters contained in plasma samples obtained from a normal human subject. In this test, the cholesterol esters were regarded as oxidizable substrates.
Blood was collected in heparin from one normal human subject who gave informed consent to prepare a plasma pool.
1.1 mL portions of this plasma sample were put into nine test tubes and were frozen-stored at −80° C.
Three test tubes A, B and C containing the frozen plasma were warmed to 37° C. for 5 minutes to thaw the frozen plasma. After thawing, the test tubes were kept in ice.
10 μL of an aqueous solution of AAPH (available from Wako Pure Chemical Industries, Ltd.; Lot No. DWF 1183) was added to 300 μL of plasma removed from each test tube at an AAPH concentration of 10 mM. Then, they were warmed to 37° C. to initiate an oxidation reaction.
After maintaining at 37° C. for 8 hours, the 3 vessels each containing the reaction solution were immersed in ice to stop the reaction. 1 mL of a methanol containing 0.02% acetic acid and 5 mL of hexane were added to 100 μL of each reaction solution to extract lipids. 4 mL of the hexane extract removed from each reaction solution was concentrated on Speed Vac (AES1010 available from Thermo Savant), and each concentrate was dissolved in 200 μL of isopropyl alcohol. […]

[2] = reported in literature (Gotoh 1992; Noguchi 1997); cited from earlier work

SMILES	amounts of CEOOHs and CEOHs produced with the increase of the concentration of the antioxidant [1]	rate of the reaction with linoleic acid peroxy radicals, expressed as ratio to the rate of the reaction of α-tocopherol [2]
CCCCCC1(CCCCC)Cc2c(cc(C(C)(C)C)c(O)c2C(C)(C)C)O1 [BO-653, 4,6-di-t-butyl-5-hydroxy-2,2-di-n-pentyl-2,3-dihydrobenzofuran]	significantly decrease	1/2
Cc1c(C)c2c(c(C)c1O)CC[C@@](C)(CCC[C@H](C)CCC[C@H](C)CCCC(C)C)O2 [α-tocopherol]	significantly increase	–
